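Interpolation was linear, between the two tested concentrations surrounding the appropriate level; five concentrations were tested over 48 hours in 96-well plates. TGI is the concentration that stops growth completely.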
Assays:
Experiment in all cases: NCI-60 cell line screen, 48 h
KM20L2 colon = test system: KM20L2 colon
LXFL 529 NSCLC = test system: LXFL 529 NSCLC
DMS 114 small cell lung = test system: DMS 114 small cell lung

Measured: TGI

COC(=O)C1=C(C)N2CCOC2CC1c1ccccc1 (stereo not drawn)
> 100 µM: all assays above

Source: PubChem BioAssay (NCI)
